Measured values reported in paper PMC5446409 (Scientific Reports, 2017).

Assays:
hERG (hKv11.1) = target: T1, hERG (hKv11.1) (Homo sapiens, UniProt Q12809); assay: automated patch clamp of I Kr in hERG-HEK293 cells; independently verified in hERG-CHO ([…] at […]); assay type: cell-based
T1 construct: gene KCNH2; human KCNH2 stably expressed in HEK293 cells

[1] = target: T2, hCav1.2 (L-type calcium channel, LTCC) (Homo sapiens, UniProt Q13936); assay: automated patch clamp of I Ca,L in Cav1.2-CHO cells; confirmed by conventional patch clamp with Ba2+ as charge carrier; assay type: cell-based
T2 construct: gene CACNA1C; hCav1.2/β2/α2δ1 channel stably expressed in CHO cells; with CACNB2 (β2) and CACNA2D1 (α2δ1) subunits
T2 sequence (Q13936 whole entry): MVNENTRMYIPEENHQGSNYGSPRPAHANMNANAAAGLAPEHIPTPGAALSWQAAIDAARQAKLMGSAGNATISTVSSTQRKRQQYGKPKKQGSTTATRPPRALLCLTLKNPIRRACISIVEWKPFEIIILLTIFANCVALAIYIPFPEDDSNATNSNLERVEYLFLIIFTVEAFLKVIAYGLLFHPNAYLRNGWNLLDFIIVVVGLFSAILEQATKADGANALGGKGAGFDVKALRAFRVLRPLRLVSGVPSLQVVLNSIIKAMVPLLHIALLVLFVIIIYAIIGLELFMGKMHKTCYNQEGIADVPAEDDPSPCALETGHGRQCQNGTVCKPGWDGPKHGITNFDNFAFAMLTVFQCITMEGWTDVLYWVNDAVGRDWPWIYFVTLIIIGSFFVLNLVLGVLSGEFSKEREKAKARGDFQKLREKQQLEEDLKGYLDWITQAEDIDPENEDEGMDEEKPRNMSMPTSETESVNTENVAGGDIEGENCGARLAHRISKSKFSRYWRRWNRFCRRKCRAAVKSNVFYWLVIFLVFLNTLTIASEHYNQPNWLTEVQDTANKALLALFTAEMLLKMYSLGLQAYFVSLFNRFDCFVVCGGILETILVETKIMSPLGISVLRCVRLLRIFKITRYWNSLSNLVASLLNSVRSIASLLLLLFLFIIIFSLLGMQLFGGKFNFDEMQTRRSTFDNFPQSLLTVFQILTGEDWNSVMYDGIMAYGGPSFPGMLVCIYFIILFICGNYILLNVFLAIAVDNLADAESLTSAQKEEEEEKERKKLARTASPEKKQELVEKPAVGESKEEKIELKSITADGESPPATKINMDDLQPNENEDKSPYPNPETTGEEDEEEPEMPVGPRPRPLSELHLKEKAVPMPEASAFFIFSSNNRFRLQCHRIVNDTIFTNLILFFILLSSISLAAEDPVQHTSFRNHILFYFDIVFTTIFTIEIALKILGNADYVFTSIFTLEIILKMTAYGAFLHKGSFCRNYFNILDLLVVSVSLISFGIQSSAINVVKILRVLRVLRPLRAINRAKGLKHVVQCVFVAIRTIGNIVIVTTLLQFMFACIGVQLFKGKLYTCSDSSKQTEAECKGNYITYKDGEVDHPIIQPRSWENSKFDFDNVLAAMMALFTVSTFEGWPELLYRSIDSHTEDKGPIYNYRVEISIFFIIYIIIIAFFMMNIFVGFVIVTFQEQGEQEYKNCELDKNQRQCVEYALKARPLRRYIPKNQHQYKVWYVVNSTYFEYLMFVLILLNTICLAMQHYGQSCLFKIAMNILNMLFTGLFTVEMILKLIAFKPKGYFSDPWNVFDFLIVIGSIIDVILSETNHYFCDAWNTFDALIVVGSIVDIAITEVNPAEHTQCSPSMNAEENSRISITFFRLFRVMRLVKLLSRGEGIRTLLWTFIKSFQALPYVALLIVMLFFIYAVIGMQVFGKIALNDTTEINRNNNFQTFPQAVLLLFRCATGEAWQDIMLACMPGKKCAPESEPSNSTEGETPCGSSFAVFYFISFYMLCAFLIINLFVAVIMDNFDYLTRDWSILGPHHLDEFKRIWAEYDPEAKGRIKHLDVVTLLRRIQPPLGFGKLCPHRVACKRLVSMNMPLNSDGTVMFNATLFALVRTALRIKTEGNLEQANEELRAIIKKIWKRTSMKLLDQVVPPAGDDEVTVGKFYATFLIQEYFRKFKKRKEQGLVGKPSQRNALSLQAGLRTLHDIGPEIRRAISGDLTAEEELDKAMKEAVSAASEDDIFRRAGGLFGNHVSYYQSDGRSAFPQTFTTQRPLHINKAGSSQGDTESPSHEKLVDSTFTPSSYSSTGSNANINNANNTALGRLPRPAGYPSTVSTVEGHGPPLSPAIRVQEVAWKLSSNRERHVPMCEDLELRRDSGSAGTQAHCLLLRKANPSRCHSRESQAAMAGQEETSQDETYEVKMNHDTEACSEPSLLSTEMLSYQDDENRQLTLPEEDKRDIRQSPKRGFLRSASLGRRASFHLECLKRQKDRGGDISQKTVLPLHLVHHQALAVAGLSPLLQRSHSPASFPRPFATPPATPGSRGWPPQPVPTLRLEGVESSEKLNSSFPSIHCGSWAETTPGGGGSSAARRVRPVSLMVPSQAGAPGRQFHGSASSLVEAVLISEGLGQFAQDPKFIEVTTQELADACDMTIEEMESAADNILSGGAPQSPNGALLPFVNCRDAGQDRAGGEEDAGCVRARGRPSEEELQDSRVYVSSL
T2 sequence (Q08289 whole entry partner): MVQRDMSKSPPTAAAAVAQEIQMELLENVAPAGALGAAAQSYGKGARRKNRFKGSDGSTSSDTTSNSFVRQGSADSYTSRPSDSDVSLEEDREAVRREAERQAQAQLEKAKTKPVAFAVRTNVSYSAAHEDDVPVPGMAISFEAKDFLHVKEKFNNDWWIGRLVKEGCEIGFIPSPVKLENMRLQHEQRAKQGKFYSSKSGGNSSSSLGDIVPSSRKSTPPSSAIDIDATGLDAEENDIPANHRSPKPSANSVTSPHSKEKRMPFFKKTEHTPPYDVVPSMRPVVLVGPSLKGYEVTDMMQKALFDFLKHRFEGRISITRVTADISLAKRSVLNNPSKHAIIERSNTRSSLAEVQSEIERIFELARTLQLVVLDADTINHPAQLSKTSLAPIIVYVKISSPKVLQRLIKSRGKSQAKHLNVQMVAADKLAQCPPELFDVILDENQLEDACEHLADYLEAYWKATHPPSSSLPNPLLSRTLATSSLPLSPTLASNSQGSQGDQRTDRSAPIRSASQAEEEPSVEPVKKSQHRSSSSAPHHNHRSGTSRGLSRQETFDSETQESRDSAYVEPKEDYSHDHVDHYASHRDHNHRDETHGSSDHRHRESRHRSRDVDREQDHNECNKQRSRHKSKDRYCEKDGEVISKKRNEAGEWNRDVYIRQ
T2 sequence (P54289 25-956 partner): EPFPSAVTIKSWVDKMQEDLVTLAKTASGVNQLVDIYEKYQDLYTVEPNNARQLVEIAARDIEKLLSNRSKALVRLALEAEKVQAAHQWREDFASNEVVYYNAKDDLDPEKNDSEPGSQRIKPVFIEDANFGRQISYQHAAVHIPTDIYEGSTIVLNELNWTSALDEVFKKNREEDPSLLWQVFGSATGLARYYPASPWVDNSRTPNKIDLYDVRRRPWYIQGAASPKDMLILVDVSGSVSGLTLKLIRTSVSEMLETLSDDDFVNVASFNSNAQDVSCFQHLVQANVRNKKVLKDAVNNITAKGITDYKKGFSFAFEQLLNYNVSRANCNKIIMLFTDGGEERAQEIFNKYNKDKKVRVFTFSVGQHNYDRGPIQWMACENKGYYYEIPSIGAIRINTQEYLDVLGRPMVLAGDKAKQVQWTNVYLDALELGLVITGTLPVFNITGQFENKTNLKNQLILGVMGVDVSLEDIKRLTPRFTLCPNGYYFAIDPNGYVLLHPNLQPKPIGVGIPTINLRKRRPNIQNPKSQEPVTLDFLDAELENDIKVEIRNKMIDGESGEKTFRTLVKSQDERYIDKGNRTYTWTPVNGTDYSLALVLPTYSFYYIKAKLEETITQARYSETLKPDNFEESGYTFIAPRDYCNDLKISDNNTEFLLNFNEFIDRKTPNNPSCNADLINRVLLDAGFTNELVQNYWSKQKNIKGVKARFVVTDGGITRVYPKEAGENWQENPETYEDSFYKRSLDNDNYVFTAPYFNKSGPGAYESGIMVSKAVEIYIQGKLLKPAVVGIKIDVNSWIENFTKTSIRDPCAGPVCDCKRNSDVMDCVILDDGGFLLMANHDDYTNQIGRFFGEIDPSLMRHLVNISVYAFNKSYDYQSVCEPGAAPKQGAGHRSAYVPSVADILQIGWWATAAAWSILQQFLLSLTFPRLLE
T2 sequence (P54289 957-1103 partner): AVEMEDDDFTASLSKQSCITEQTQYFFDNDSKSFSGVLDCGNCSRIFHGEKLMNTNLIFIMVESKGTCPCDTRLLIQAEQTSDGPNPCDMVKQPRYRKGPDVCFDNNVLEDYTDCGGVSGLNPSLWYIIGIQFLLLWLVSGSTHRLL

T1 sequence (Q12809 whole entry): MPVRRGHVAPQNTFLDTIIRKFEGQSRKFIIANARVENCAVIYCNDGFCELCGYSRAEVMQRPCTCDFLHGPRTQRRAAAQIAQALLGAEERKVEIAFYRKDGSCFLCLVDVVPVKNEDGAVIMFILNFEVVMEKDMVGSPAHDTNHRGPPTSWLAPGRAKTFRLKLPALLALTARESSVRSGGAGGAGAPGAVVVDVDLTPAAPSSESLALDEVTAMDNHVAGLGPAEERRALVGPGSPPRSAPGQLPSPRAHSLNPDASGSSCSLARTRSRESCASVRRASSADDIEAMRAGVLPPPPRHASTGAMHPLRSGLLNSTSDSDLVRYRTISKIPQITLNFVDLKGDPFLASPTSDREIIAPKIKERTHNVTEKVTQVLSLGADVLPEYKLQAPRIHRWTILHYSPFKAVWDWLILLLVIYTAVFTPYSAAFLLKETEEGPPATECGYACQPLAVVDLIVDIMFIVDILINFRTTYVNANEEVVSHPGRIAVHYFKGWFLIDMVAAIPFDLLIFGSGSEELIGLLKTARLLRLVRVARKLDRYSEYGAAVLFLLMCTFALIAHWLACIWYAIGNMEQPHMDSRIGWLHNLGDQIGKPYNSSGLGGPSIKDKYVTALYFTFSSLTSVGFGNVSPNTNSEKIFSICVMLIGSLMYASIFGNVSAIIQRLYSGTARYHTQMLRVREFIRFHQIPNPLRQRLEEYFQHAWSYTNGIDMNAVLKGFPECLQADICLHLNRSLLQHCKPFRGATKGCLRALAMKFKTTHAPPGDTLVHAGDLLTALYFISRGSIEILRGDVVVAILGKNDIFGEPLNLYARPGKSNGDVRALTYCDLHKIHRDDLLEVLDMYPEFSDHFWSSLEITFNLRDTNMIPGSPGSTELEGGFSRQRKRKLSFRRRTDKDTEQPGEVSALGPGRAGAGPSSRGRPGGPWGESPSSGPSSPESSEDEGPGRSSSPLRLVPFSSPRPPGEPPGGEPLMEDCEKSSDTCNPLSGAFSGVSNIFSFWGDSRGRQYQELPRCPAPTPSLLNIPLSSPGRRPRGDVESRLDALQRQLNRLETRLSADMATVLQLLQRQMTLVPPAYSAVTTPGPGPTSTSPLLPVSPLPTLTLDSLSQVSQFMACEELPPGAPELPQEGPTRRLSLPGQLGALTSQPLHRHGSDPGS

## C[C@]12CC[C@H](O)C[C@H]1CC[C@@H]1[C@@H]2CC[C@]2(C)[C@@H](c3ccc(=O)oc3)CC[C@]12O [BF, bufalin]
hERG (hKv11.1)
  IC50: > 100 µM
[1]
  IC50: 12.5 µM
